# Laboratory results published in US8791079B2, “Methods for treating heart failure by inhibiting the mitochondrial sodium-calcium exchanger (mNCE)” (priority 2009, dated 2014).
# Like-named read-outs stand apart in the source and are kept apart here.
# What was measured:
# Guinea pig hearts [1] = assay: Oxygen consumption in isolated perfused hearts; settings: ouabain followed by isoproterenol, without (isoproterenol) or with CGP-37157
# From the text: (§1) Guinea pig hearts were quickly excised under anesthesia and mounted on a modified Langendorff apparatus attached to a Powerlab system (AD Instruments, Colorado Springs, Colo.). Hearts were perfused with gassed (95/5% O2/CO2) control buffer containing: 118-mM NaCl, 24-mM NaHCO3, 1.2-mM KH2PO4, 4.75-mM KCl, 1.2-mM MgSO4, 2.0-mM CaCl2, and 10-mM glucose. A buffer-filled latex balloon (Harvard apparatus) was inserted through the mitral valve into the left ventricle. Hearts were suspended in a buffer-filled heating chamber maintained at 37° C. and two electrodes were placed into the bath for volume-conducted electrocardiogram recordings. Heart rate, left ventricular developed pressure (LVDP), maximal rates of contraction and relaxation (±dP/dt), oxygen consumption, and electrocardiograms (ECG) were recorded on a computer. After a ten-minute equilibration period, hearts were subjected to the following protocol: ten-minute baseline recording while the heart was perfused with control buffer, ten-minute recording while 0.25-μM ouabain with or without 1 μM CGP-37157, and sixty-minute recording while hearts were stimulated with 25-nM isoproterenol. The measurements of hemodynamic parameters were determined by taking the average during the last two minutes before ouabain treatment (baseline) and for two minutes during the maximal effect on LVDP of either ouabain or isoproterenol.
# Cardiac O2 concentration was measured with an O2 probe attached to a PowerLab system (AD Instruments). The probe was calibrated with 95% O2-saturated buffer as 100% and 100% N2-saturated buffer as 0%. The molar concentration of O2 consumption was calculated from percentage concentration with the following equation: VO2(μmol/min/g dwt)=CF×(0.02373/22.414)×((760−p)/760)×(ΔO2%/100)/dwt
# where CF is coronary flow (mL/min); 0.02373 is the absorption coefficient of O2 in H2O at 37° C.; 22.414 is the volume (L) of 1 mol gas at STP; 760 is 1 atm in mm Hg; p equals 47.067, which is the vapor pressure of H2O at 37° C.; ΔO2% is the difference in O2 percentage concentration between inflow buffer collected from cannula before heart was mounted and outflow buffer collected from pulmonary artery; dwt is dry heart weight.
# Guinea pig hearts [2] = assay: Hemodynamics of isolated perfused hearts (Langendorff); settings: 25-nM isoproterenol in ouabain-treated hearts, absence (isoproterenol) or presence of CGP-37157
# From the text: as §1
# In Table 1A-1C, hemodynamics of isolated perfused hearts were recorded at baseline, with ouabain treatment (1 μM), and with ouabain plus isoproterenol (100 nM) stimulation with or without CGP-37157 (1 μM). HR, heart rate; LVDP, left ventricular developed pressure; Oua: ouabain; CGP: CGP-37157; VF: ventricular fibrillation. *p<0.05 compared to group without CGP; † p<0.05 compared to baseline.
# HF patients = settings: cited from earlier work; for mortality: post hoc analysis of DIG trial
SMILES,increase of whole-heart oxygen consumption (VO2) compared to baseline (Guinea pig hearts [1]),increase of +dP/dt compared to the level with ouabain treatment (Guinea pig hearts [2]),increase of LVDP compared to the level with ouabain treatment (Guinea pig hearts [2]),increase of heart rate (HR) compared to the level with ouabain treatment (Guinea pig hearts [2]),increase of −dP/dt compared to the level with ouabain treatment (Guinea pig hearts [2]),"overall mortality (HF patients; DIG trial, HF patients)",mortality (HF patients; SDC ≧1.0 ng/mL),mortality (HF patients; serum digoxin concentration (SDC) 0.5-0.9 ng/mL)
"CC(C)NCC(O)c1ccc(O)c(O)c1 (centres unmarked) [isoproterenol, 4-[1-hydroxy-2-(isopropylamino)ethyl]benzene-1,2-diol, reference compound]",25%,57%,not increased further,28%,52%,,,
"C[C@H]1O[C@@H](OC2[C@@H](O)C[C@H](OC3[C@@H](O)CC(O[C@H]4CC[C@@]5(C)[C@H](CC[C@@H]6[C@@H]5C[C@@H](O)[C@]5(C)[C@@H](C7=CC(=O)OC7)CC[C@]65O)C4)O[C@@H]3C)O[C@@H]2C)C[C@H](O)C1O (stereo in doubt) [digoxin, 4-[(3S,5R,8R,9S,10S,12R,13S,14S)-3-[(2S,4S,5R,6R)-5-[(2S,4S,5R,6R)-5-[(2S,4S,5R,6R)-4,5-dihydroxy-6-methyl-oxan-2-yl]oxy-4-hydroxy-6-methyl-oxan-2-yl]oxy-4-hydroxy-6-methyl-oxan-2-yl]oxy-12,14-dihydroxy-10,13-dimethyl-1,2,3,4,5,6,7,8,9,11,12,15,16,17-tetradecahydrocyclopenta[a]phenanthren-17-yl]-5H-furan-2-one]",,,,,,did not affect overall mortality,no effect on mortality,reduced mortality of all HF patients
